This is an account of results in patent US9808527B2, “Methods and compositions for treating HIV infections” (priority 2006, dated 2017).

In test [1] the test system is 92UG029 (A-X4). Nature of the test: p24 Gag production inhibition, PHA-PBMs, subtype A isolate 92UG029. The format is cell-based, HIV-1. The protocol:
(§1) Drug susceptibility assay. The susceptibility of HIV-1LAI, HIV-2EHO, HIV-2ROD, to various drugs and the cytotoxicity of those drugs was determined by using the MTT assay. Briefly, MT-2 cells (2×10^4/mL) were exposed to 100 TCID50s (50% tissue culture infectious doses) of HIV-1LAI, HIV-2EHO, or HIV-2ROD in the presence or absence of various concentrations of drugs in 96-well microculture plates and were incubated at 37° C. for 7 days. After 100 μL of the medium was removed from each well, 3-(4,5-dimethylthiazol-2-yl)-2,5-diphenyltetrazolium bromide (MTT) solution (10 μL, 7.5 mg/mL in phosphate-buffered saline) was added to each well in the plate, followed by incubation at 37° C. for 4 hours. […] All assays were performed in duplicate or triplicate. To determine the sensitivity of HIV-1Ba-L, HIV-1ERS104 pre, and clinical multi-drug-resistant HIV-1 isolates and different subtypes of HIV-1 isolates to drugs, phytohemagglutinin-activated peripheral blood mononuclear cells (PHA-PBMs; 10^6/mL) were exposed to 50 TCID50 (50% tissue infectious dose) of each HIV-1 isolate and cultured in the presence or absence of various concentrations of drugs in 10-fold serial dilutions in 96-well microtiter culture plates. To determine the drug susceptibility of certain laboratory HIV-1 strains (HIV-1NL4-3), MT-4 cells were used as target cells. MT-4 cells (10^5/mL) were exposed to 100 TCID50 of wild type HIV-1NL4-3 and PI-resistant HIV-1NL4-3 in the presence or absence of various concentrations of drugs and were incubated at 37° C. On day 7 of culture, the supernatant was harvested and the amount of p24 Gag protein was determined by using a fully automated chemiluminescent enzyme immunoassay system (Lumipulse F; Fujirebio Inc., Tokyo, Japan) (22). […] All assays were performed in duplicate or triplicate.
(§2) The IC50 values were determined by using PHA-PBMs as target cells and the inhibition of p24 Gag protein production by each drug was used as an endpoint. All assays were conducted in duplicate, and the data shown represent mean values (±1 standard deviations) derived from the results of two or three independent experiments.

Test [2] deals with Ba-L (B-R5). Briefly: p24 Gag production inhibition, PHA-PBMs, subtype B Ba-L. In kind it is cell-based, HIV-1. The note with it: Human immunodeficiency virus 1, BAL, read-out: IC50 against Ba-L (B-R5). As for the experimental part:
as §1, §2

For test [3], the system named is multi-drug-resistant clinical HIV-1 variants. Briefly: p24 assay, PHA-PBMs, panel of multi-drug-resistant clinical HIV-1 isolates. In kind it is cell-based. Particulars: Human immunodeficiency virus 1, read-out: IC50 against multi-drug-resistant clinical HIV-1 strains, PHA-PBMs, p24 production. The protocol: as §1
The amino acid substitutions identified in the protease-encoding region of HIV-1ERS104pre, HIV-1TM, HIV-1MM, HIV-1JSL, HIV-1B, HIV-1C, HIV-1G compared to the consensus type B sequence cited from the Los Alamos database include L63P; L10I, K14R, R41K, M46L, I54V, L63P, A71V, V82A, L90M; I93L; L10I, K43T, M46L, I54V, L63P, A71V, V82A, L90M, Q92K; L10I, L24I, I33F, E35D, M36I, N37S, M46L, I54V, R57K, I62V, L63P, A71V, G73S, V82A; L10I, K14R, L33I, M36I, M46I, F53I, K55R, I62V, L63P, A71V, G73S, V82A, L90M, I93L; L10I, I15V, K20R, L24I, M36I, M46L, I54V, I62V, L63P, K70Q, V82A, L89M; and L10I, V11I, T12E, I15V, L19I, R41K, M46L, L63P, A71T, V82A, L90M, respectively. HIV-1ERS104pre served as a source of wild-type HIV-1. The IC50 values were determined by using PHA-PBMs as target cells and the inhibition of p24 Gag protein production by each drug was used as an endpoint. The numbers in parentheses represent the fold changes of IC50 values for each isolate compared to the IC50 values for wild-type HIV-1ERS104pre. All assays were conducted in duplicate or triplicate, and the data shown represent mean values (±1 standard deviations) derived from the results of three independent experiments.

Test [4] concerns HIV-1MDR/MM (R5). Nature of the test: microbe, parasite or virus in culture. The format is cell-based. The note with it: for IC50: Human immunodeficiency virus 1, read-out: IC50 against HIV-1MDR/MM (R5); for fold change of IC50, HIV-1MDR/MM: compared to wild-type HIV-1ERS104pre. As for the experimental part: as §1
(§3) HIV-1ERS104pre served as a source of wild-type HIV-1. The IC50 values were determined by using PHA-PBMs as target cells and the inhibition of p24 Gag protein production by each drug was used as an endpoint.

The subject of test [5] is HIV-1MDR/TM (X4). Nature of the test: microbe, parasite or virus in culture. The format is cell-based. Particulars: for IC50: Human immunodeficiency virus 1, read-out: IC50 against HIV-1MDR/TM (X4); for fold change of IC50, HIV-1MDR/TM: compared to wild-type HIV-1ERS104pre. The protocol:
as §1, §3

For test [6], the system named is HIV-1MDR/C (X4). Briefly: microbe, parasite or virus in culture. Particulars: for IC50: Human immunodeficiency virus 1, read-out: IC50 against HIV-1MDR/C (X4); for fold change of IC50, HIV-1MDR/C: compared to wild-type HIV-1ERS104pre. In kind it is cell-based. The protocol: as §1, §3
Test [7] relates to HIV-1MDR/G (X4). Nature of the test: microbe, parasite or virus in culture. The format is cell-based. Particulars: for IC50: Human immunodeficiency virus 1, read-out: IC50 against HIV-1MDR/G (X4); for fold change of IC50, HIV-1MDR/G: compared to wild-type HIV-1ERS104pre. As for the experimental part:
as §1, §3

In test [8] the test system is HIV-1MDR/JSL (R5). Briefly: microbe, parasite or virus in culture. The note with it: for IC50: Human immunodeficiency virus 1, read-out: IC50 against HIV-1MDR/JSL (R5); for fold change of IC50, HIV-1MDR/JSL: compared to wild-type HIV-1ERS104pre. In kind it is cell-based. As for the experimental part: as §1, §3
The subject of test [9] is HIV-1MDR/B (X4). Briefly: microbe, parasite or virus in culture. The format is cell-based. Particulars: for IC50: Human immunodeficiency virus 1, read-out: IC50 against HIV-1MDR/B (X4); for fold change of IC50, HIV-1MDR/B: compared to wild-type HIV-1ERS104pre. The protocol: as §1, §3
Setting [10] is: Human immunodeficiency virus 1, PHA-PBMs, p24 Gag production, read-out: IC50 against 92UG029 (A-X4).

Read-outs that look alike come from different tables or passages of the source.

With `CC(C)c1nc(CN(C)C(=O)N[C@H](C(=O)N[C@@H](Cc2ccccc2)C[C@H](O)[C@H](Cc2ccccc2)NC(=O)OCc2cncs2)C(C)C)cs1` [RTV, ritonavir], the IC50 was 71 ± 11 nM in test [1] (setting [10]); 23 ± 6 nM in [2] (PHA-PBMs, p24 Gag production); > 1000 nM in test [3].

As for `Cc1c(O)cccc1C(=O)N[C@@H](CSc1ccccc1)[C@H](O)CN1C[C@H]2CCCC[C@H]2C[C@H]1C(=O)NC(C)(C)C` [NFV, Nelfinavir], the IC50 in [1] (setting [10]) is 43 ± 6 nM; in test [2] (PHA-PBMs, p24 Gag production) it was 18 ± 4 nM; in [3], > 1000 nM.

Consider `CC(C)CN(C[C@@H](O)[C@H](Cc1ccccc1)NC(=O)O[C@H]1CCOC1)S(=O)(=O)c1ccc(N)cc1` [APV, Amprenavir], for which the IC50 in test [1] (setting [10]) stood at 46 ± 6 nM; in test [2] (PHA-PBMs, p24 Gag production), 25 ± 6 nM; in test [4], 480 ± 90 nM; in test [5] it was 300 ± 40 nM; in test [6], 250 ± 50 nM; in [7], 320 ± 20 nM. The IC50 amounted to 430 ± 50 nM in test [8] and 360 ± 90 nM in test [9].

For the compound `CC(C)(C)NC(=O)[C@@H]1C[C@@H]2CCCC[C@@H]2CN1C[C@@H](O)[C@H](Cc1ccccc1)NC(=O)[C@H](CC(N)=O)NC(=O)c1ccc2ccccc2n1` [SQV, Saquinavir], the IC50 was 4.8 ± 0.5 nM in test [1] (Human immunodeficiency virus 1, read-out: IC50 against 92UG029 (A-X4)); 8.3 ± 0.5 nM in test [2]; 140 to 290 nM in test [3]; 140 ± 40 nM in test [4]; 180 ± 50 nM in [5]; 35 ± 4 nM in test [6]. The results for the IC50 in test [7], in test [8] and in test [9] were 33 ± 5 nM, 290 ± 50 nM and 270 ± 60 nM, respectively. Also, the “fold change of IC50, HIV-1MDR/MM” value in test [4] turned out to be 18. In test [5], the “fold change of IC50, HIV-1MDR/TM” value turned out to be 23. For the same compound, the “fold change of IC50, HIV-1MDR/C” value in [6] stood at 4. The “fold change of IC50, HIV-1MDR/G” value in test [7] was determined as 4. For the same compound, in test [8], the “fold change of IC50, HIV-1MDR/JSL” value came to 36. In test [9], the “fold change of IC50, HIV-1MDR/B” value is reported as 34.

Turning to `CC(C)(C)NC(=O)[C@@H]1CN(Cc2cccnc2)CCN1C[C@@H](O)C[C@@H](Cc1ccccc1)C(=O)N[C@H]1c2ccccc2C[C@H]1O` [IDV, indinavir], the IC50 in test [1] (setting [10]) was 44 ± 9 nM; in test [2] (PHA-PBMs, p24 Gag production), 22 ± 5 nM; in [3] it was > 1000 nM; in [4] it was > 1000 nM; in [5] it was > 1000 nM; in [6], > 1000 nM. For the same compound, the IC50 in test [7] is 640 ± 110 nM; in test [8], > 1000 nM; in [9], > 1000 nM.

In the case of `CC(C)CN(CC(O)C(Cc1ccccc1)NC(=O)OC1COC2OCCC12)S(=O)(=O)c1ccc2c(c1)OCO2` (stereo not drawn) [GRL-98065], the IC50 in test [1] (setting [10]) was 0.5 ± 0.2 nM; in test [2] (PHA-PBMs, p24 Gag production), 0.2 ± 0.1 nM; in [3], ≤ 6 nM; in test [4], 3.8 ± 0.6 nM; in test [5], 3.2 ± 0.6 nM; in test [6] it was 2.7 ± 0.3 nM. Further, the IC50 in test [7] was found to be 3.4 ± 0.3 nM; in test [8] it was 6 nM; in test [9], 3.9 ± 0.5 nM. Besides, in [4], the “fold change of IC50, HIV-1MDR/MM” value was 8. In [5], the “fold change of IC50, HIV-1MDR/TM” value is given as 6. In addition, the “fold change of IC50, HIV-1MDR/C” value in [6] is on record as 5. Besides, the “fold change of IC50, HIV-1MDR/G” value in test [7] is listed as 7. Further, the “fold change of IC50, HIV-1MDR/JSL” value in [8] was found to be 12. Besides, the “fold change of IC50, HIV-1MDR/B” value in [9] is reported as 8.

Regarding `Cc1cccc(C)c1OCC(=O)N[C@@H](Cc1ccccc1)[C@@H](O)C[C@H](Cc1ccccc1)NC(=O)[C@H](C(C)C)N1CCCNC1=O` [LPV, lopinavir], the IC50 in test [1] (setting [10]) was determined as 7 ± 1 nM; in test [2] (PHA-PBMs, p24 Gag production), 5.3 ± 0.4 nM.

For `COC(=O)N[C@H](C(=O)N[C@@H](Cc1ccccc1)[C@@H](O)CN(Cc1ccc(-c2ccccn2)cc1)NC(=O)[C@@H](NC(=O)OC)C(C)(C)C)C(C)(C)C` [ATV, Atazanavir], the IC50 is 6 ± 2 nM in [1] (setting [10]); 1.3 ± 0.4 nM in [2] (PHA-PBMs, p24 Gag production); 45 ± 0.1 nM in test [4]; 38 ± 9 nM in test [5]; 21 ± 6 nM in [6]; 32 ± 2 nM in test [7]. Also, the IC50 in test [8] was found to be 540 ± 200 nM; in test [9], 250 ± 3 nM. Further, the “fold change of IC50, HIV-1MDR/MM” value in test [4] is reported as 12. In addition, the “fold change of IC50, HIV-1MDR/TM” value in test [5] is recorded as 10. The “fold change of IC50, HIV-1MDR/C” value in test [6] is recorded as 6. Moreover, the “fold change of IC50, HIV-1MDR/G” value in test [7] is reported as 8. Further, the “fold change of IC50, HIV-1MDR/JSL” value in [8] was 142. In addition, the “fold change of IC50, HIV-1MDR/B” value in [9] was 66.
